Measured values reported in patent US6083987A, “Phenylenediamine derivative, radical scavenger, brain-infarction depressant, and brain-edema depressant” (Shiseido Co., Ltd., priority 1998, dated 2000).

Assays:
[1] = Radical Eliminating Effect Test (DPPH); format: biochemical; conditions: 10 μM sample compound, 0.1 mM DPPH, pH 5.5, 30 minutes, room temperature
Experimental: Radical Eliminating Effect Test (DPPH)
Radical-eliminating ability of a sample drug is studied in terms of its reaction amount and reactivity with respect to α, α-diphenyl-β-picrylhydrazyl (DPPH) which is a stable radical.
Method of Uchiyama et al. (Japanese Journal of Pharmacology, vol. 88, pp. 678-683, 1968) was used. Namely, to a solution containing 20 mM acetic acid buffer (pH 5.5), 60% ethanol, and 10 μM of a sample compound, DPPH was added so as to yield a concentration of 0.1 mM. The resulting mixture was stirred and then its change in absorbance (ABS) at 517 nm was measured for 30 minutes at room temperature. Here, the sample compound was used as being dissolved in dimethylsulfoxide (DMSO). While the final concentration of DMSO was 10%, no influence upon the present system was observed.
The DPPH reducing ratio of the sample compound at the concentration of 10 μM was calculated by the following equation:
reducing ratio (%)={1-(ABS after 30 minutes/initial ABS)}×100

rat brain homogenate = test: Lipid Peroxidation Inhibition Test; format: biochemical, rat (SD-line male); conditions: 1 μM sample compound, pH 7.4, 1 hour at 37° C., TBA method
Excerpt: Lipid Peroxidation Inhibition Test
In an automatic oxidation system using a rat brain homogenate, whether a sample compound having a radical-eliminating effect can actually have a lipid peroxidation inhibitory activity or not is investigated and its effectiveness is comparatively studied.
With reference to method of Shimamoto et. al. (Clinical Study of Free Radical, vol. 1, pp. 91-95, 1987), the following method was used. An SD-line male rat (7-week-old) was bled to death with a physiological saline perfusion under pentobarbital anesthesia. Then, its hemisphaerium cerebri was taken out and, while being cooled with ice, a 19-fold amount of 20 mM phosphoric acid buffer (pH 7.4) was added thereto. The resulting mixture was homogenized. To this mixture, 1 μM of the sample compound was added. After the resulting mixture was incubated for 1 hour at 37° C., the amount of generated lipid peroxide was determined by TBA method. Namely, to 0.2 ml of the homogenate, 0.2 ml of 8.1% SDS, 1.5 ml of 20% acetic acid buffer (pH 3.5), and 1.5 ml of 0.8% TBA reagent were added. The resulting mixture was incubated for 1 hour at 95° C. and then rapidly cooled with ice. Subsequently, 1 ml of distilled water and 5 ml of n-butanol/pyridine mixed solution (15:1, v/v) were added thereto and the mixture was stirred. After the mixture was centrifuged, the butanol layer was collected therefrom and its absorbance (a) at 535 nm was measured as compared with a blank. Also, as a reference liquid, a 10 μM solution of 1,1,3,3-tetraethoxypropane (TEP) was added in place of the brain homogenate and its absorbance (A) was measured in a similar manner. In the blank, a phosphoric acid buffer was used in place of the brain homogenate. The peroxide concentration was calculated by the following equation and defined as the brain lipid peroxide amount: […]
peroxide concentration (nmol/g wet weight)=a/A×100
The sample compound was used as being dissolved in dimethylsulfoxide (DMSO). While the final concentration of DMSO was 2%, no influence upon the present system was observed.
The lipid peroxidation inhibitory rate of the sample compound at the concentration of 1 μM was calculated from the amount of increase in lipid peroxide in solvent-added group (M) and that in sample compound added group (m): […]
lipid peroxidation inhibitory rate (%)={1-(m/M)}×100

[2] = test system: middle cerebral artery (MCA) infarction model; test: Brain Infarction Inhibition Test (MCA infarction model); format: in vivo, rat (Crj:Fischer-344 line male); conditions: for Brain infarction inhibitory ratio: dose was 100 mg/kg, 2 hours ischemia, 2 hours reperfusion, i.p. 20 minutes before or i.v. simultaneously with reperfusion, * p < 0.05
Experimental: Brain Infarction Inhibition Test i) Meaning The brain infarction inhibitory activity in vivo is studied. According to this test, it can be judged whether the peripherally administered sample compound can pass through the blood-brain barrier or not. ii) Method For the experiment, 9 to 10-week-old Crj:Fischer-344 line male rats were used. Each of all the soluble sample compounds was dissolved in a physiological saline and then administered intravenously or intraperitoneally. Each of insoluble ones was suspended in a physiological saline containing 0.1% Tween 80 and administered intraperitoneally. Also, those dissolved in a physiological saline containing 0.5% Tween 80 were used for intravenous administration. The intraperitoneal administration was effected 20 minutes before reperfusion, whereas the intravenous administration was effected simultaneously with reperfusion. As a control, only the base was administered. The surgical operation was effected in a manner similar to method of Koizumi et al. (Japanese Journal of Stroke, vol. 8, pp. 1-8, 1986) so as to form a middle cerebral artery (MCA) infarction model. Namely, the rat was subjected to inhalation anesthesia with 4% halothane and then, while the anesthesia was maintained with 1% halothane, fixed on face-up position. The neck portion was subjected to median incision such that the common carotid artery and outer carotid artery around the right carotid artery branching portion were separated from their surrounding connecting tissues and then ligated with a silk string. Further, the inner carotid artery starting portion was surrounded by a silk string so as to be ready for ligation and fixation which would be effected after insertion of an embolus. Then, the common carotid artery was incised and, from there, an embolus having a length of about 16 mm, in which a 4-0 surgical nylon string had been coated with a dental impression material, was inserted toward the inner carotid artery and its end near the nylon string was ligated and fixed to the inner carotid artery with the above mentioned silk string. Also, during the surgical operation, the body temperature was maintained by a small animal body temperature control apparatus in order to prevent it from lowering upon the whole anesthesia processes. According to the foregoing operation, brain ischemia was effected for 2 hours and then the embolus was pulled out so as to effect reperfusion. The brain was taken out two hours after the reperfusion and then 4 pieces of crown-like separated strips were prepared by 2-mm intervals from the lambda level toward the downstream. These strips were immersed in 2% triphenyltetrazorium chloride (TTC) solution and incubated at 37° C., for 10 minutes. Thus dyed brain strips were immersed in a phosphate-buffered 8% formalin solution for 1 to 2 days and then photographed under a stereo-microscope ([…]). Thereafter, for each crown-like strip, the area of infarction region was measured by Planimeter ([…]) Judgment Standard The effects of the sample compound were represented by its individual inhibitory rate (%) which used the total area of the infarction regions, which had not been dyed with TTC in the 4 strips. The significance test was effected by student t-test. individual inhibitory rate(%)={1-(value in sample group/value in control group)}×100

[3] = test system: MCA infarction reperfusion model; test: Brain Edema Inhibition Test (MCA infarction reperfusion model); format: in vivo, rat (Fischer); conditions: dose was 100 mg/kg; i.p. 20 minutes before reperfusion; two-hour ischemia and two-hour reperfusion; brain moisture content
Excerpt: Brain Edema Inhibition Test
The brain edema inhibitory activity in vivo is confirmed. According to this test, it can be judged whether the peripherally administered sample compound can pass through the blood-brain barrier or not.
By using a 7 to 9-week-old Fischer rat (Charles River Japan Inc.), an MCA infarction reperfusion model was formed according to method of Koizumi et al. (Japanese Journal of Stroke, vol. 8, pp. 1-8, 1986). Namely, the rat was fixed face-up position under anesthesia with 2% halothane and then its neck portion was subjected to median incision so as to separate the right common carotid artery therefrom to the carotid artery branching portion while carefully keeping the vagus nerve. The outer carotid artery and inner carotid artery around the carotid artery branching portion were separated from their surrounding connecting tissues. Then, the common carotid artery and outer carotid artery were ligated with a silk string. Further, the inner carotid artery starting portion was surrounded by a silk string so as to be ready for ligation and fixation which would be effected after insertion of an embolus string. Then, the common carotid artery was incised and, from there, an embolus string was inserted toward the inner carotid artery by about 15 to 16 mm and then ligated and fixed to the inner carotid artery with the above mentioned silk string. As a result of the foregoing operation, the tip of the embolus string proceeded beyond the MCA branching portion so as to enter the anterior cerebral artery by about 1 to 2 mm and formed infarction at the MCA inlet by the body portion of the embolus string. After the embolus string blocking the MCA starting portion was left for a predetermined time, it was pulled out under halothane anesthesia to effect reperfusion. Here, in this model, since the right common carotid artery has been ligated, the blood flow is supposed to be restarted from the left inner carotid artery and vertebral-basilar by way of the anterior and posterior communicating arteries. This experiment effected two-hour ischemia and two-hour reperfusion.
Here, the embolus string was prepared in the following manner. Namely, a tip of a 4-0 surgical nylon string having a total length of 16 mm was held over an alcohol lamp so as to form a ball with a diameter of 0.2 to 0.3 mm and then a length of about 5 mm on the nearer side therefrom was coated with a dental impression material with reference to the size of the ball, thereby forming the embolus string.
The brain moisture content was measured by wet and dry weight method. […] Further, after being dried at 110° C. for 24 hours, their weight was measured again to yield dry weight. From thus obtained wet weight and dry weight, the brain moisture content was determined by the following equation: […]

## CC(C)Cc1cc(C(=O)Nc2ccc(N(C)C)cc2)ccc1O [Example 1]
[1]
  DPPH reducing ratio: 22.9%
Rat brain homogenate
  Lipid peroxidation inhibitory ratio: 40.1%
[2]
  Brain infarction inhibitory ratio: 53.0%
[3]
  Brain edema inhibitory ratio: 2.0%

## CC(C)Cc1ccc(O)c(C(=O)Nc2ccc(N(C)C)cc2)c1 [Example 2]
[1]
  DPPH reducing ratio: 17.7%
Rat brain homogenate
  Lipid peroxidation inhibitory ratio: 26.8%
[2]
  Brain infarction inhibitory ratio: 41.2%

## CC(C)Cc1cccc(C(=O)Nc2ccc(N(C)C)cc2)c1O [Example 3]
[1]
  DPPH reducing ratio: 22.5%
Rat brain homogenate
  Lipid peroxidation inhibitory ratio: 22.7%

## CC(C)Cc1ccc(C(=O)Nc2ccc(N(C)C)cc2)cc1O [Example 4]
[1]
  DPPH reducing ratio: 16.4%
Rat brain homogenate
  Lipid peroxidation inhibitory ratio: 13.5%

## CC(C)Cc1nccc(C(=O)Nc2ccc(N(C)C)cc2)c1O [Example 5]
[1]
  DPPH reducing ratio: 16.1%
Rat brain homogenate
  Lipid peroxidation inhibitory ratio: 29.5%
[2]
  Brain infarction inhibitory ratio: 19.0%
[3]
  Brain edema inhibitory ratio: 38.1%

## COc1ccc(COc2ccc(C(=O)Nc3ccc(N(C)C)cc3)cc2CC(C)C)cc1 [Example 6]
[1]
  DPPH reducing ratio: 25.1%
Rat brain homogenate
  Lipid peroxidation inhibitory ratio: 41.7%
[3]
  Brain edema inhibitory ratio: 1.5%

## COc1ccc(C(=O)Nc2ccc(N(C)C)cc2)cc1CC(C)C [Example 7]
[1]
  DPPH reducing ratio: 20.7%
Rat brain homogenate
  Lipid peroxidation inhibitory ratio: 48.9%

## CC(C)=CCC/C(C)=C/COc1ccc(C(=O)Nc2ccc(N(C)C)cc2)cc1CC(C)C [Example 8]
[1]
  DPPH reducing ratio: 21.2%
Rat brain homogenate
  Lipid peroxidation inhibitory ratio: 41.7%

## CC(C)Cc1cc(C(=O)Nc2ccc(N(C)C)cc2)ccc1OCc1ccccc1 [Example 9]
[1]
  DPPH reducing ratio: 25.5%
Rat brain homogenate
  Lipid peroxidation inhibitory ratio: 28.1%
[2]
  Brain infarction inhibitory ratio: 39.9%
[3]
  Brain edema inhibitory ratio: 19.2%

## CC(C)Cc1cccc(C(=O)Nc2ccc(N(C)C)cc2)c1OCc1ccccc1 [Example 10]
[1]
  DPPH reducing ratio: 11.5%
Rat brain homogenate
  Lipid peroxidation inhibitory ratio: 28.2%
[2]
  Brain infarction inhibitory ratio: 18.7%
[2]; rat, in vivo
  brain infarction inhibition activity, in words: showed brain infarction inhibition tendency

## CC(C)Cc1cc(S(=O)(=O)Nc2ccc(N(C)C)cc2)ccc1O [Example 12]
[1]
  DPPH reducing ratio: 61.8%
Rat brain homogenate
  Lipid peroxidation inhibitory ratio: 24.2%
[2]
  Brain infarction inhibitory ratio: 0.7%

## CC(C)Cc1cc(S(=O)(=O)Nc2ccc(N(C)C)cc2)ccc1OC(=O)c1ccccc1 [Example 13]
[1]
  DPPH reducing ratio: 58.9%
Rat brain homogenate
  Lipid peroxidation inhibitory ratio: 13.4%

## CC(C)Cc1cc(C(=S)Nc2ccc(N(C)C)cc2)ccc1O [Example 14]
[1]
  DPPH reducing ratio: 18.3%
Rat brain homogenate
  Lipid peroxidation inhibitory ratio: 33.9%

## CC(C)Cc1cc(CC(=O)Nc2ccc(N(C)C)cc2)ccc1OCc1ccccc1 [Example 15]
[1]
  DPPH reducing ratio: 12.8%
Rat brain homogenate
  Lipid peroxidation inhibitory ratio: 24.8%
[2]
  Brain infarction inhibitory ratio: 2.8%

## CC(C)Cc1cc(CC(=O)Nc2ccc(N(C)C)cc2)ccc1O [Example 16]
[1]
  DPPH reducing ratio: 21.0%
Rat brain homogenate
  Lipid peroxidation inhibitory ratio: 14.4%

## CC(C)Cc1cccc(CC(=O)Nc2ccc(N(C)C)cc2)c1O [Example 17]
[1]
  DPPH reducing ratio: 18.7%
Rat brain homogenate
  Lipid peroxidation inhibitory ratio: 10.4%
